Source: a melting point compilation (Tetko et al.; mined from patent text by program, amines drawn as free bases though some values may be those of a salt)

Row | melting point [°C] | SMILES
1 | 230 | Cc1nnsc1C(=O)Nc1ccc(-n2nc(-c3nccs3)cc2C#N)cc1
2 | 128 to 130 | OC[C@H]1O[C@@H](n2cnc3c(NC4CCOC4)ncnc32)[C@@H](O)[C@H]1O (stereo partly drawn)
3 | 162 | c1cnc(NCCN2CCC(=C3c4ccccc4CCn4ncnc43)CC2)nc1
4 | 177 to 178 | N#Cc1cccc(COc2ncc(F)c(NC(=O)NCc3ccccc3F)n2)c1
5 | 141 to 142 | COC(=O)c1ccc2ccc(S(=O)(=O)N(Cc3ccccc3)Cc3ccccc3)cc2c1
6 | 132 | CCOC(=O)c1ccc(C(C(N)=O)C(C)c2cc(C)ccc2N2CCCCC2)cc1 (stereo not drawn)
7 | 154 to 156 | COc1nc(C)cnc1N(C(=O)OCC(C)C)S(=O)(=O)c1cccnc1-c1ccc(C=O)cc1
8 | 204 | CCC(C)CNC(=O)c1ccc2cccc(Cc3ccc(C(=O)NS(=O)(=O)c4ccccc4C)cc3OC)c2c1 (stereo not drawn)
9 | 218 to 220 | CC(=O)c1cc2c(s1)CCCC2NC(N)=O (stereo not drawn)
10 | 73 to 75 | CCOC(=O)CCN1CCN(C2=Nc3ccccc3Oc3ccc(Cl)cc32)CC1
11 | 166 to 168 | CCOCc1nc2c(N)nc3cc(Br)cnc3c2n1CC1(O)CCCC1
12 | 150 to 151 | Cc1ccccc1COc1cccnc1NC(=S)Nc1ccccc1
13 | 221 to 223 | CC(C)(O)c1cnn2c(-c3cccc(-c4ccncc4)c3F)cnc2n1
14 | 106 to 108 | COC(=O)C(=Cc1cc(OC)cc(OC)c1)c1ccc(O)cc1
15 | 117 | COc1ccc(NC(=O)NCCCl)cc1OC
16 | 242 | COc1ccc(/C=C/c2nc3c(c(=O)n(C)c(=O)n3C)n2C)c(OC)c1
17 | 68 | CCC(=O)C(CCCOc1ccc2c(c1)OCO2)C(=O)CC
18 | 79 to 82 | CS(=O)(=O)c1ccc(C(CC2CCCC2)C(=O)Nc2cnc(CC#N)cn2)cc1Cl (stereo not drawn)
19 | 165 to 166 | Cc1ccc(Oc2ccccc2C(=O)O)c(NS(=O)(=O)c2cc(C(F)(F)F)cc(C(F)(F)F)c2)c1
20 | 118 to 119 | CCNc1cccc(NC(=O)COC)c1C#N

Row | melting point [°C] | SMILES
21 | 184 to 186 | CN(C)c1nc2sc3c(NCCCN4CCCC4=O)ncnc3c2c2c1CC(C)(C)C2
22 | 160 to 161 | Cc1nc2c(N)nc3ccccc3c2n1CCCCNC(=O)C(C)C
23 | 74 to 76 | CCOC(=O)c1cc(=O)c(Oc2ccccc2OC)co1
24 | 124 to 127 | Cc1c(N2C[C@@H](N)[C@@H](C(C)C)C2)c(F)cc2c(=O)c(C(=O)O)cn([C@@H]3C[C@@H]3F)c12
25 | 136 to 137 | CC(C)c1cc(OCC(=O)O)cc2c1C(=O)N(COC(=O)c1c(Cl)cccc1Cl)S2(=O)=O
26 | 198 to 200 | COc1cc2ncc(C#N)c(Nc3cc(C)ccc3O)c2cc1OC
27 | 193 to 194 | Cc1nn(C)cc1C(=O)Nc1ccc(OCC(C)(C)C)c(C#N)c1
28 | 103 | CCOC(=O)c1c(Cl)c2cc(C)ccc2n(Cc2ccccc2)c1=O
29 | 280 | COc1ccccc1-n1c(=O)[nH]c2c(C(N)=O)nc(-c3cccc4[nH]ncc34)nc21
30 | 200 | COc1nc(C)nc(NC(=O)NS(=O)(=O)c2c(C3=NOCCO3)csc2C)n1
31 | 256 to 257 | COc1ccc2c(c1)CCc1c(C(F)F)nn(-c3ccc(S(N)(=O)=O)cc3)c1-2
32 | 81 to 83 | CCCCN1CCc2ccccc2C1CNC(=O)c1cc(OC)c(OC)c(OC)c1 (stereo not drawn)
33 | 228 | CC(C)(C)NS(=O)(=O)c1cccc(NC(=O)c2cnn3c(C(F)F)cc(-c4ccc(C(F)(F)F)cc4)nc23)c1
34 | 88 to 89 | COc1ccc(S(=O)(=O)N2CCCC2)cc1
35 | 148 | CC(C)(C)OC(=O)Nc1cc(OCC#N)c(-c2ccc(F)cc2)cc1[N+](=O)[O-]
36 | 52 to 53 | CCc1nc(-c2ccc(OCCCN3CCOCC3)cc2)no1
37 | 144 to 147 | CCCCc1nc(Cl)c(CO)n1Cc1ccc(NC(=O)C(NC(=O)OC(C)(C)C)C(=O)O)cc1 (racemic)
38 | 131 to 134 | COc1ccc(-n2c(=O)c(C(=O)Cl)nc3c(Cl)cccc32)cc1
39 | 151 to 152 | CCc1sc2nc(=NS(=O)(=O)c3ccc(C)cc3)sn2c1-c1ccc2c(c1)CCCC2
40 | 174 to 176 | CC(=O)CS(=O)(=O)NC1(c2ccc(OCc3ccc4ccccc4n3)cc2)CCCCCC1

Second part, the compound before the results:

Row | SMILES | melting point [°C]
41 | COC(=O)C1Cc2c(ncn2Cc2ccccc2)CN1Cc1ccccc1 (stereo not drawn) | 91 to 93
42 | N#CC1(c2ccc(OC(F)F)c(OC3CCCC3)c2)CCC(=O)CC1 | 76 to 78
43 | CC1(C)C(=CC=C2C(=O)c3ccccc3C2=C(C#N)C#N)N2CCCc3cccc1c32 | 291
44 | COC(=O)C(C#N)=C(Nc1cccnc1)SC | > 260
45 | CC(C)c1ccc2c(c1)C(Cl)Cc1ccc(F)cc1S2 (stereo not drawn) | 82 to 83
46 | COc1ccc2c(c1)c(CCON)c(C)n2Cc1ccc(Cl)cc1 | 92 to 94
47 | O=C(NCCSCc1ccccc1Cl)c1c(Cl)cccc1Cl | 110 to 112
48 | C#CCC#CCC#CCOc1ccc(C)cc1 | 34.5 to 35.5
49 | COc1ccc([C@@H](CO)[C@H]2CCCCN2C(=O)OC(C)(C)C)cc1 | 115 to 117
50 | COCCNC(=O)c1cccc(-c2cccc3c(F)c(Cc4cccc(C(F)(F)F)c4)sc23)c1 | 115 to 116
51 | CC1CC(=O)NN=C1c1ccc(N2CCC(CN)CC2)c([N+](=O)[O-])c1 (stereo not drawn) | 131 to 132
52 | CCCCS(=O)(=O)Nc1ccccc1Oc1ccc2ncccc2c1 | 131 to 133
53 | Clc1ccc(-c2n[nH]cc2Cl)cc1 | 158
54 | CCCOC(=O)C1=C(N)NC(C)=C(C(=O)OCC)C1c1ccccc1C#N (stereo not drawn) | 182
55 | CCN(CC)C(=O)C(c1ccccc1)n1cnc2[nH]ncc2c1=S (stereo not drawn) | 143 to 146
56 | CCCCCCCCc1ccc(N(c2ccc(CCCCCCCC)cc2)C2(c3c(C)n(CC)c4ccccc34)OC(=O)c3ccccc32)cc1 (stereo not drawn) | 106 to 108
57 | CC(=Cc1ccc(OCCCNc2ccc(Cl)cc2)cc1)C(=O)O | 188 to 193
58 | COc1cnccc1CCCOc1cccnc1Oc1ccccc1 | 101 to 102
59 | CS(=O)(=O)C(=C1CN(C(c2ccccc2)c2ccccc2)C1)c1cccc(N)c1 | 197
60 | Cc1cccc2c1nc1n2CC(c2ccccn2)S1 (stereo not drawn) | 96

Row | SMILES | melting point [°C]
61 | O=C(c1ccc(OCCCCl)cc1)c1cccc2[nH]ccc12 | 86
62 | CCCCc1nc(C(=O)O)c(C(=O)O)[nH]1 | 261 to 263
63 | CCC(CC(=O)NC(=O)OC(C)(C)C)Nc1ccc(C)cc1 (stereo not drawn) | 96 to 97
64 | O=C(CC12CC3CC(CC(C3)C1)C2)Nc1cc(O)ccc1Cl | 224 to 225
65 | CCCOc1cc2c(c3c1OC(C)(C)C3)C(c1cccc(-c3ccncc3)c1)=NC(C)(C)C2 | 132 to 134
66 | O=C(Cn1c(-c2cccc(Br)c2)nc2cccnc21)N1CCCCC1 | 157 to 158
67 | N#Cc1ccccc1-c1ccc(CN2C(=O)c3ccccc3C2=O)cc1 | 150 to 153
68 | CC(C)n1cc(-c2ccc(F)cc2)c(-c2ccc(F)cc2)c1C(=O)O | 212
69 | CCc1nccc2[nH]c(=O)ccc12 | 186 to 188
70 | Fc1ccc(-n2ncnc2-c2ccncc2)cc1 | 114 to 115
71 | CCCc1c(C(=O)CCl)c2ccc(C(=O)OC)cc2n1Cc1ccccc1Cl | 143 to 145
72 | Cn1cc(-c2ccccc2)c(=O)c(-c2ccc([N+](=O)[O-])cc2)c1 | 212 to 214
73 | CC(C)(C)NC(=O)NOCC(O)CN1CCCCC1 (stereo not drawn) | 71 to 73
74 | CC(C)(C)CC(C)(C)c1cc(-n2nc3ccc(-c4ccc(-c5ccccc5)cc4)cc3n2)c(O)c(C(C)(C)c2ccccc2)c1 | 181 to 183
75 | CCC(=O)N1CCC(C(=O)O)CC1 | 91 to 94
76 | O=C(Cc1ccc(Br)cn1)Nc1ccccn1 | 131
77 | C=C1CC2CC(O)CCC2(C)C2CCC3(C)C(C(C)CCC(=O)O)CCC3C12 (stereo not drawn) | 104 to 105
78 | C=CCSc1cc(C(=O)O)cc([N+](=O)[O-])c1-c1ccccc1 | 152 to 154
79 | Nc1ccc(OCCN2CCN(c3nsc4ccccc34)CC2)cc1 | 128
80 | CCCc1c(OCCCCC(=O)N(CC)CC)ccc(C(C)=O)c1O | 95 to 97

Row | SMILES | melting point [°C]
81 | CC(C)CC(=O)N[C@H]1CC[C@H](CCN2CCN(c3nccc4c3OCC4)CC2)CC1 | 187
82 | O=C1N(Cc2ccc(OCc3ccccc3)cc2)c2ccccc2C12COc1cc3c(cc12)OCCO3 (stereo not drawn) | 87 to 89
83 | CCOC(=O)c1[nH]c2cc(Cl)cc(Cl)c2c1NCCC(=O)c1ccccc1Cc1ccccc1 | 208 to 209
84 | CCOC(=O)Nc1ccc(-n2ccc(C#N)c2)c(F)c1 | 188 to 190
85 | O=C(CCCCN1CCCCC1)c1ccc2oc3ccc(C(=O)CCCCN4CCCCC4)cc3c(=O)c2c1 | 109 to 110
86 | CC(C)(C)OCC1CNC(=O)O1 (stereo not drawn) | 57 to 65
87 | Oc1c2c(nn1-c1ccc(F)cc1)CCc1cc(F)ccc1-2 | 220 to 221
88 | CN1Cc2c(C(=O)OC(C)(C)C)ncn2-c2cccnc2C1=O | 234 to 236
89 | CN(Cc1ccc(C(=O)O)cc1)c1ccc2c(c1)C(C)(C)CCC2(C)C | 141 to 144
90 | COC1OCC[C@@H]1NC(=O)[C@H](CC(C)C)NC(=O)[C@H](CC(C)C)NC(=O)[C@H](CC(C)C)NC(=O)OCc1ccccc1 (stereo partly drawn) | 210 to 212
91 | Fc1ccc2[nH]c3c(c2c1)CCNC3c1ccc2c(c1)OCO2 (stereo not drawn) | 172
92 | CCC(C(=O)O)N(C(=O)c1cccn1-c1ccc(F)cc1)c1ccc(N2CCCCC2)c(C#N)c1 (stereo not drawn) | 138 to 139
93 | O=C(C[N+](=O)[O-])c1ccc2c(c1)CCN2 | 172 to 174
94 | CCOC(=O)Nc1ccc(NC(=O)OCc2ccccc2)c(O)c1 | 190
95 | Cn1c(C#N)c(F)n(-c2ccc(Cl)cc2)c1=O | 105
96 | CSc1ccc(C(O)C#CC2(O)CCCC2)cc1 (stereo not drawn) | 118 to 120
97 | CC1(C)CC(c2ccccc2)c2ccc(OCC3CO3)cc2O1 (stereo not drawn) | 82 to 85
98 | O=c1cc(-c2ccc(O)c(Br)c2)oc2ncccc12 | 267 to 272
